# Laboratory results as given in publication PMC2735258 (Journal of medicinal chemistry, 2009).
# Values joined by “and” are separate entries in the source; they are usually repeats but may differ in a detail not shown here. Identical values can stand only once. Like-named read-outs stand apart in the source and are kept apart here. Square brackets hold non-standard residues; d marks the D form. Ends that are not written are not given here. * marks the point of attachment. pY = N[C@@H](Cc1ccc(OP(=O)(O)O)cc1)C(=O)O; pCinn = not defined here; NHBn = c1ccc(CN*)cc1
# Experiments:
# Stat3 [1] = target: T1, Stat3 (Homo sapiens, UniProt P40763); assay: Stat3 SH2 domain affinity, fluorescence polarization; type: binding; conditions: for fold loss in affinity: relative to compound 21; for fold weaker / loss in affinity: relative to compound 28
# T1 sequence (P40763 whole entry, species assumed, the tested form may be a part): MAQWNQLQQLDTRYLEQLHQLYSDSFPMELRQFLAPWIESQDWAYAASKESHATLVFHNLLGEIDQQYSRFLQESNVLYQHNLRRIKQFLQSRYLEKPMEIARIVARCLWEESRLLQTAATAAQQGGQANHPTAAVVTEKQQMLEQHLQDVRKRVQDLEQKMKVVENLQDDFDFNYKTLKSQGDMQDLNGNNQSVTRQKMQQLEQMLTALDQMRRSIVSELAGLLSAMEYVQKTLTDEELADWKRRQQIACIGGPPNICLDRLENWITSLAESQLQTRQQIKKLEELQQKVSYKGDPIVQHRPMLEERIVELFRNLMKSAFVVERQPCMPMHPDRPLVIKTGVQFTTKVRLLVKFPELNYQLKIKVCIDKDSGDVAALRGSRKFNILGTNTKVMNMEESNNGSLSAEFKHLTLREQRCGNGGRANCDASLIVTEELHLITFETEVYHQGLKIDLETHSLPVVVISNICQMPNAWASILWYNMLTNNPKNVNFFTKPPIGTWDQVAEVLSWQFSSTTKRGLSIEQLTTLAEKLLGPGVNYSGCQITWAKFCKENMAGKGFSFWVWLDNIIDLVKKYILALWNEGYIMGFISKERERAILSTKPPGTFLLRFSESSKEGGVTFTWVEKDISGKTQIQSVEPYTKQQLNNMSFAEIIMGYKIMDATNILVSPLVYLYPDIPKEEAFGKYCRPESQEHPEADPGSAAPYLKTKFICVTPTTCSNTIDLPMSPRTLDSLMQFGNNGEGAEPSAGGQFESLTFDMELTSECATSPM
# Stat3 [2] = target: T1, Stat3; conditions: cited from earlier work
# [3] = lead phosphopeptides, ref Coleman et al.[16]
compound,measurement,setting,value
7: XXX-Leu-Pro-Gln-Thr-NH2 with XXX = Ac-pTic; drawing shows XXX only [Compound 7],IC50,Stat3 [1]; fluorescence polarization,> 100000 nM
"O=C(O)CCCNC(=O)[C@@H]1Cc2cccc3c2N1C(=O)[C@@H](NC(=O)/C=C/c1ccc(OP(=O)(O)O)cc1)CC3 [Compound 24, pCinn-Haic-Gaba]",fold loss in affinity,Stat3 [1],5 fold
"CS(=O)(=O)CC[C@H](NC(=O)[C@@H]1Cc2cccc3c2N1C(=O)[C@@H](NC(=O)/C=C/c1ccc(OP(=O)(O)O)cc1)CC3)C(N)=O [Compound 35, pCinn-Haic-Met(O2)-NH2]",fold weaker / loss in affinity,Stat3 [1],~10 fold
"NC(=O)CC[C@H](NC(=O)[C@@H]1CC[C@@H]2CC[C@H](NC(=O)/C=C/c3ccc(OP(=O)(O)O)cc3)C(=O)N21)C(=O)NCc1ccccc1 [Compound 18, pCinn-(3S,6S,9S)-ABN-Gln-NHBn]",fold lower affinity,Stat3 [1]; relative to Leu-Pro analogue 17,4 fold
"NC(=O)[C@@H]1Cc2cccc3c2N1C(=O)[C@@H](NC(=O)/C=C/c1ccc(OP(=O)(O)O)cc1)CC3 [Compound 31, pCinn-Haic-NH2]",fold weaker,Stat3 [1]; relative to compound 24,42 fold
same,fold weaker / loss in affinity,Stat3 [1],150 fold
"C[S+]([O-])CC[C@H](NC(=O)[C@@H]1Cc2cccc3c2N1C(=O)[C@@H](NC(=O)/C=C/c1ccc(OP(=O)(O)O)cc1)CC3)C(N)=O (stereo partly shown) [Compound 34, pCinn-Haic-Met(O)-NH2]",fold weaker / loss in affinity,Stat3 [1],~10 fold
"NC(=O)CC[C@H](NC(=O)[C@@H]1Cc2cccc3c2N1C(=O)[C@@H](NC(=O)/C=C/c1ccc(OP(=O)(O)O)cc1)CC3)C(=O)O [Compound 26, pCinn-Haic-Gln-OH]",fold loss in affinity,Stat3 [1],2 fold
Ac-Tyr(PO3H2)-Leu-Pro-Gln-Thr-NH2 (Ac-[pY]LPQT-NH2; SMILES CC(=O)N[C@@H](Cc1ccc(OP(=O)(O)O)cc1)C(=O)N[C@@H](CC(C)C)C(=O)N1CCC[C@H]1C(=O)N[C@@H](CCC(N)=O)C(=O)N[C@H](C(N)=O)[C@@H](C)O) [Compound 2],IC50,Stat3 [2]; [3],740 nM and 739 nM
Ac-[pY]LPQ-NH2 [Compound 3],IC50,Stat3 [2]; [3],856 ± 41 nM
pCinn-Leu-Pro-Gln-NHBn ([pCinn]LPQ-NHBn; reading uncertain; also: printed as pCinn-Leu-Pro-Gln-NHBn) [Compound 17],IC50,Stat3 [2]; ref [69],138 ± 8 nM
"C[C@H](NC(=O)[C@@H]1Cc2cccc3c2N1C(=O)[C@@H](NC(=O)/C=C/c1ccc(OP(=O)(O)O)cc1)CC3)C(N)=O [Compound 32, pCinn-Haic-Ala-NH2]",activity / affinity for Stat3 in words,Stat3 [1],micromolar range
Ac-Tyr(PO3H2)-Leu-Pro-Gln-NHBn (Ac-[pY]LPQ-NHBn; SMILES CC(=O)N[C@@H](Cc1ccc(OP(=O)(O)O)cc1)C(=O)N[C@@H](CC(C)C)C(=O)N1CCC[C@H]1C(=O)N[C@@H](CCC(N)=O)C(=O)NCc1ccccc1) [Compound 4],IC50,Stat3 [2]; [3],409 ± 15 nM
